In patent publication USRE47193E1, “Selectively substituted quinoline compounds” (EISAI R&D MANAGEMENT CO., LTD., priority 2013, dated 2019):

Test system: Human TLR7/8
Test: Human PBMC cell-based assay, TLR7/8 stimulus (RNA-Ig), cytokine ELISA
Settings: primary human PBMC assay, TLR7/8 potency; ligand not given; read-out: Human PBMCs IC50
Method: Human PBMC Cell-Based Assay. Human peripheral blood mononuclear cells (PBMC) were isolated from freshly-drawn heparinized (10 USP units/ml, Hospira, Lakeforest, Ill.) healthy donor whole blood by density gradient (Histopaque® 1077, Sigma, Inc., St. Louis, Mo.). Briefly, 25 ml blood was diluted with 15 ml PBS (without Ca^2+, Mg^2+) in a 50 ml conical tube, and 12 ml Histopaque was underlaid using a spinal needle. Tubes were centrifuged for 45 minutes at 1200 rpm (350×g), and PBMC were collected from the buffy coat. Cells were then washed twice in PBS, and red blood cells were lysed by suspension in 5 ml ammonium chloride solution (1× Red Blood Cell Lysis Buffer, eBioscience) for 5 minutes at room temperature. After a final wash in PBS, PBMC were resuspended at a final concentration of 2×10^6/ml in RPMI-1640 media with L-glutamine (Invitrogen) and supplemented with 25 mM HEPES (Mediatech, Inc, Manassas Va.), 10% fetal bovine serum (HyClone, Logan, Utah), and Penicillin-Streptomycin-Glutamine (Mediatech) and plated at 100 ul/well (2×10^5 cells/well) in tissue culture treated 96-well plates (Falcon).
Antagonist compounds solubilized and serial diluted in 100% DMSO were added in triplicate to cells to yield a final concentration of 0.1% DMSO (v/v). Hydroxychloroquine (Acros Organics) solubilized and serial diluted in PBS was added in triplicate to cells. PBMC were incubated with antagonist compounds or HCQ for 30 minutes at 37° C., 5% CO2 before adding various TLR agonist reagents in 100 ul complete media per well as follows (final concentrations indicated): R848 (Resiquimod; GLSynthesis, Worcester, Mass.) at 1 uM for TLR7 and TLR8, LPS (Sigma) at 10 ng/ml for TLR4, and CpG-2216 (InvivoGen) at 5 ug/ml for TLR9. To prepare a TLR7/8 agonist that mimics RNA-containing auto-antibody immune complexes in lupus patients, a 26-mer RNA with a sequence derived from human U1 snRNA stem loop IV [(sequence: […]-[…] (SEQ ID NO: 2) with phosphorothioate backbone] was synthesized (Dharmacon, Inc., Lafayette, Colo.), which has been shown previously to be a potent TLR7 and TLR8 agonist. This RNA molecule was diluted to 2.5 μM in serum-free RPMI, and mouse anti-human single stranded DNA monoclonal antibody (MAB3034, Millipore, Inc., Billerica, Mass.), which also cross-reacts with RNA, was added at a 1:25 dilution or at 1 ug/ml. The resulting “RNA-Ig” stimulus was incubated at room temperature for 15-30 minutes before adding to cells. PBMC were incubated with the various TLR agonists for 20 hours at 37° C., 5% CO2. Cell culture supernatants were collected, and levels of various human cytokines were assessed as indicated by standard ELISA procedure according to the manufacturer's recommended protocol (BD Biosciences, Inc., San Diego, Calif.). In a subsequent assay (Table 6) the ability of ER-899742 to block stimulation of normal PBMC by various TLR7/8 ligands, but not DNA-mediated activation of TLR9, was examined. In this assay cells were plated at 1×10^5 cells/well in 100 ul in 96-well plates.

SMILES	IC50
CC1CCN(CC2CN(c3ccc(C#N)c4ncccc34)CC(C)O2)C1 (centres unmarked) [ER-886868]	50 nM
CC1CN(c2ccc(C#N)c3ncccc23)CC(CN2C(C)CCCC2C)O1 (centres unmarked) [ER-886950]	114 nM
CC1CN(c2ccc(C#N)c3ncccc23)CC(CN2CCCC(O)C2)O1 (centres unmarked) [ER-886951]	79 nM
CC1CN(c2ccc(C#N)c3ncccc23)CC(CN2CCCCC2C)O1 (centres unmarked) [ER-886957]	17 nM
CCC1CCCCN1CC1CN(c2ccc(C#N)c3ncccc23)CC(C)O1 (centres unmarked) [ER-886958]	34 nM
CC1CCN(C[C@H]2CN(c3ccc(C#N)c4ncccc34)C[C@@H](C)O2)CC1 [ER-887141]	49 nM
CC1CCCC(NCC2CN(c3ccc(C#N)c4ncccc34)CC(C)O2)C1 (centres unmarked) [ER-887146]	38 nM
C[C@@H]1CN(c2ccc(C#N)c3ncccc23)C[C@H](CNc2cc(-c3ccccc3)ccn2)O1 [ER-887252]	2 nM
CC1CN(CC2CN(c3ccc(C#N)c4ncccc34)CC(C)O2)C(C)CN1 (centres unmarked) [ER-887260]	4 nM
CC1CN(c2ccc(C#N)c3ncccc23)CC(CN2CC(O)CC2CO)O1 (centres unmarked) [ER-887262]	103 nM
C[C@@H]1CN(c2ccc(C#N)c3ncccc23)C[C@H](CNc2cccc(-c3ccccc3)n2)O1 [ER-887589]	36 nM
N#Cc1ccc(N2CCOC(CNc3ccccn3)C2)c2cccnc12 (centres unmarked) [ER-887612]	53 nM
Cc1cc(C=O)cc(-c2ccc(C#N)c3ncccc23)c1 [ER-888200]	16 nM
C[C@@H]1CN(c2ccc(C#N)c3ncccc23)C[C@H](CN2CCCCC2)O1 [ER-888202]	8 nM
C[C@@H]1CN(c2ccc(C#N)c3ncccc23)C[C@H](CN2CCOCC2)O1 [ER-888203]	105 nM
C[C@@H]1CN(c2ccc(C#N)c3ncccc23)C[C@H](CN2C[C@@H](C)O[C@@H](C)C2)O1 [ER-888204]	22 nM
CC1CN(CC2CN(c3ccc(C#N)c4ncccc34)CC(C)O2)CC(CO)O1 (centres unmarked) [ER-888205]	40 nM
CC1CN(c2ccc(C#N)c3ncccc23)CC(CN2CCN(c3ccccn3)CC2)O1 (centres unmarked) [ER-888285]	14 nM
CC1CN(c2ccc(C#N)c3ncccc23)CC(CN2CCN(c3ccncc3)CC2)O1 (centres unmarked) [ER-888286]	223 nM
C[C@@H]1CN(c2ccc(C#N)c3ncccc23)C[C@H](CNc2ccc3cccnc3n2)O1 [ER-888289]	11 nM
C[C@@H]1CN(c2ccc(C#N)c3ncccc23)C[C@H](CN2CCN(C(N)=O)CC2)O1 [ER-888330]	154 nM
CC1CN(c2ccc(C#N)c3ncccc23)CC(CN2CCC(C3CCCCC3)CC2)O1 (centres unmarked) [ER-888479]	91 nM

SMILES	IC50
C[C@@H]1CN(c2ccc(C#N)c3ncccc23)C[C@H](Cn2cc(C3CCCCC3)nn2)O1 [ER-888603]	7 nM
C[C@@H]1CN(c2ccc(C#N)c3ncccc23)C[C@H](Cn2cc(-c3ccccc3)nn2)O1 [ER-888604]	6 nM
Cc1cc(CN2CCC(O)CC2)cc(-c2ccc(C#N)c3ncccc23)c1 [ER-888645]	47 nM
Cc1cc(CN2CCC(N(C)C)CC2)cc(-c2ccc(C#N)c3ncccc23)c1 [ER-888646]	3 nM
Cc1cc(CN2CCN(C)CC2)cc(-c2ccc(C#N)c3ncccc23)c1 [ER-888647]	12 nM
CCc1cnc(NC[C@H]2CN(c3ccc(C#N)c4ncccc34)C[C@@H](C)O2)nc1 [ER-888701]	18 nM
C[C@@H]1CN(c2ccc(C#N)c3ncccc23)C[C@H](CNc2cnccn2)O1 [ER-888896]	50 nM
Cc1cc(NC[C@H]2CN(c3ccc(C#N)c4ncccc34)C[C@@H](C)O2)n(C)n1 [ER-888977]	217 nM
Cc1cc(CN2CCC(N3CCCCC3)CC2)cc(-c2ccc(C#N)c3ncccc23)c1 [ER-889504]	2 nM
CC1CN(c2ccc(C#N)c3ncccc23)CC(CN2CCC(CO)CC2)O1 (centres unmarked) [ER-889557]	85 nM
CC1CN(c2ccc(C#N)c3ncccc23)CC(CN2CCC(N3CCCC3)C2)O1 (centres unmarked) [ER-889571]	1000 nM
CC1CN(c2ccc(C#N)c3ncccc23)CC(CN2CCC(NC(=O)c3cccnc3)CC2)O1 (centres unmarked) [ER-889728]	21 nM
CCCCCC(=O)NC1CCN(CC2CN(c3ccc(C#N)c4ncccc34)CC(C)O2)CC1 (centres unmarked) [ER-889744]	8 nM
CC1CN(c2ccc(C#N)c3ncccc23)CC(CN2CCC(NC(=O)C(C)(C)C)CC2)O1 (centres unmarked) [ER-889746]	73 nM
C[C@@H]1CCN(c2ccc(C#N)c3ncccc23)C[C@H](CN2CCC(N3CCCCC3)CC2)O1 [ER-889822]	25 nM
CC1CN(c2ccc(C#N)c3ncccc23)CC(CN2CC(N3CCN(C)CC3)C2)O1 (centres unmarked) [ER-890108]	9 nM
CC(=O)N1CCC(C2CCN(CC3CN(c4ccc(C#N)c5ncccc45)CC(C)O3)CC2)CC1 (centres unmarked) [ER-890113]	22 nM
CC1CN(c2ccc(C#N)c3ncccc23)CC(CN2CC(N3CCNCC3)C2)O1 (centres unmarked) [ER-890119]	8 nM
CC(=O)N1CCN(C2CN(CC3CN(c4ccc(C#N)c5ncccc45)CC(C)O3)C2)CC1 (centres unmarked) [ER-890120]	5 nM
CC(=O)N[C@@H]1CCN(C[C@H]2CN(c3ccc(C#N)c4ncccc34)C[C@@H](C)O2)C1 [ER-890252]	42 nM
CC(C)C(=O)N[C@@H]1CCN(C[C@H]2CN(c3ccc(C#N)c4ncccc34)C[C@@H](C)O2)C1 [ER-890253]	64 nM
CC1CN(c2ccc(C#N)c3ncccc23)CC(CN2CC(N3CCOCC3)C2)O1 (centres unmarked) [ER-890342]	121 nM

SMILES	IC50
CC1CN(c2ccc(C#N)c3ncccc23)CC(CN2CCNCC2C)O1 (centres unmarked) [ER-890344]	2 nM
CC1CN(c2ccc(C#N)c3ncccc23)CC(CN2CC(N3CCC(N)CC3)C2)O1 (centres unmarked) [ER-892253]	66 nM
Cc1nn(C)cc1C(=O)NC1CCN(CC2CN(c3ccc(C#N)c4ncccc34)CC(C)O2)CC1 (centres unmarked) [ER-893926]	8 nM
C[C@@H]1CN(c2ccc(C#N)c3ncccc23)C[C@H](CN2CCC(NS(=O)(=O)c3ccccc3)CC2)O1 [ER-894149]	31 nM
CC1CN(c2ccc(C#N)c3ncccc23)CC(CN2CCC(NS(=O)(=O)c3ccc(F)cc3)CC2)O1 (centres unmarked) [ER-894150]	4 nM
C[C@@H]1CN(c2ccc(C#N)c3ncccc23)C[C@H](CN2CC(NS(C)(=O)=O)C2)O1 [ER-894154]	143 nM
C[C@@H]1CN(c2ccc(C#N)c3ncccc23)C[C@H](CN2CC(NS(=O)(=O)c3ccc(F)cc3)C2)O1 [ER-894155]	42 nM
Cc1nn(C)cc1S(=O)(=O)NC1CN(C[C@H]2CN(c3ccc(C#N)c4ncccc34)C[C@@H](C)O2)C1 [ER-894159]	42 nM
Cc1nn(C)cc1S(=O)(=O)NC1CCN(C[C@H]2CN(c3ccc(C#N)c4ncccc34)C[C@@H](C)O2)CC1 [ER-894160]	11 nM
C[C@@H]1CN(c2ccc(C#N)c3ncccc23)C[C@H](CN2CCNC(=O)[C@H]2C)O1 [ER-894483]	209 nM
C[C@@H]1CN(c2ccc(C#N)c3ncccc23)C[C@H](CN2CCNC(=O)[C@@H]2C)O1 [ER-894484]	174 nM
CC(=O)N[C@H]1CCN(C[C@H]2CN(c3ccc(C#N)c4ncccc34)C[C@@H](C)O2)C1 [ER-894546]	69 nM
CC(C)C(=O)N[C@H]1CCN(C[C@H]2CN(c3ccc(C#N)c4ncccc34)C[C@@H](C)O2)C1 [ER-894547]	12 nM
C[C@@H]1CN(c2ccc(C#N)c3ncccc23)C[C@H](CN2CC[C@H](NC(=O)c3ccccc3)C2)O1 [ER-894548]	28 nM
C[C@@H]1CN(c2ccc(C#N)c3ncccc23)C[C@H](CN2CC[C@H](N(C)C)C2)O1 [ER-894549]	14 nM
CC1CN(c2ccc(C#N)c3ncccc23)CC(COc2cnccn2)O1 (centres unmarked) [ER-894552]	17 nM
CC1CN(c2ccc(C#N)c3ncccc23)CC(C(C)O)O1 (centres unmarked) [ER-895200]	26 nM
CC1CN(c2ccc(C#N)c3ncccc23)CC(C(C)O)O1 (centres unmarked) [ER-895310]	34 nM
CC1CN(c2ccc(C#N)c3ncccc23)CC(COc2ccccn2)O1 (centres unmarked) [ER-895324]	1 nM
CC1CN(c2ccc(C#N)c3ncccc23)CC(C(N)=O)O1 (centres unmarked) [ER-895472]	161 nM
CC1CN(c2ccc(C#N)c3ncccc23)CC(C(=O)N2CCC(N3CCCCC3)CC2)O1 (centres unmarked) [ER-895477]	13 nM
